Test results published in ChEMBL document CHEMBL3217565, “Conformational effects on potency of thioimidazoles and dihydrothiazolines” (Medchemcomm, 2011).

Tests used:
[1] = target: T1, Mitogen-activated protein kinase 14 (Homo sapiens, UniProt Q16539); experiment: Ratio of SB203580 IC50 to compound IC50 for p38-alpha MAPK (unknown origin)
[2] = target: T1, Mitogen-activated protein kinase 14; experiment: Inhibition of p38-alpha MAPK (unknown origin) after 3 hrs

T1 sequence (Q16539 whole entry): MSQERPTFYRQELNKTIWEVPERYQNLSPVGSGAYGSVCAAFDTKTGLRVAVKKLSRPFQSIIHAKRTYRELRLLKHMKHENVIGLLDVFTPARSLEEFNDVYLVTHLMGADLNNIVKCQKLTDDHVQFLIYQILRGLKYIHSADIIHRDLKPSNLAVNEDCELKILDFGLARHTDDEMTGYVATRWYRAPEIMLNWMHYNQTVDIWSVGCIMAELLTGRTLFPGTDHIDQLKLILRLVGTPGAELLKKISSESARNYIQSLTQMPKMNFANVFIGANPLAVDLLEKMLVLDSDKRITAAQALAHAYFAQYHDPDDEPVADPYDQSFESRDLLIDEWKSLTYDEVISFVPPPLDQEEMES

| Structure (SMILES) | Ratio IC50 [1] | IC50 [2] [nM] |
| --- | --- | --- |
| O=C(Cc1ccc(F)cc1)Nc1cc(-c2c(-c3ccc(F)cc3)nc3n2CCS3)ccn1 | 1.93 | 46 |
| CSc1nc(-c2ccc(F)cc2)c(-c2ccnc(NC(=O)c3ccco3)c2)[nH]1 | 1.46 |  |
| CSc1nc(-c2ccc(F)cc2)c(-c2ccnc(NC(=O)c3cc4ccccc4o3)c2)[nH]1 | 0.7 |  |
| CSc1nc(-c2ccc(F)cc2)c(-c2ccnc(NC(=O)Cc3ccccc3)c2)[nH]1 | 1.23 | 22 |
| CSc1nc(-c2ccc(F)cc2)c(-c2ccnc(NC(=O)c3ccccc3)c2)n1C | 0.18 | 337 |
| O=C(Nc1cc(-c2c(-c3ccc(F)cc3)nc3n2CCS3)ccn1)c1ccco1 | 0.63 | 140 |
| O=C(Nc1cc(-c2c(-c3ccc(F)cc3)nc3n2CCS3)ccn1)c1ccccc1 | 0.89 | 83 |
| CSc1nc(-c2ccc(F)cc2)c(-c2ccnc(NC(=O)Cc3ccc(F)cc3)c2)n1C | 0.24 |  |
| O=C(Nc1cc(-c2c(-c3ccc(F)cc3)nc3n2CCS3)ccn1)C1CC1c1ccccc1 (stereo not drawn) | 1.4 | 20 |
| CSc1nc(-c2ccc(F)cc2)c(-c2ccnc(NC(=O)C3CC3c3ccccc3)c2)n1C (stereo not drawn) | 0.22 | 186 |
| CSc1nc(-c2ccc(F)cc2)c(-c2ccnc(NC(=O)c3ccco3)c2)n1C | 0.35 | 173 |
| CSc1nc(-c2ccc(F)cc2)c(-c2ccnc(NC(=O)c3cc4ccccc4o3)c2)n1C | 0.1 | 430 |
| CSc1nc(-c2ccc(F)cc2)c(-c2ccnc(NC(=O)c3ccc(F)cc3)c2)n1C | 0.16 | 396 |
| CSc1nc(-c2ccc(F)cc2)c(-c2ccnc(NC(=O)C3CC3c3ccccc3)c2)[nH]1 (stereo not drawn) | 1.85 | 20 |

Continued, values first:

| Ratio IC50 [1] | IC50 [2] [nM] | Structure (SMILES) |
| --- | --- | --- |
| 3.55 |  | CSc1nc(-c2ccc(F)cc2)c(-c2ccnc(NC(=O)Cc3ccc(F)cc3)c2)[nH]1 |
| 1.93 |  | CSc1nc(-c2ccc(F)cc2)c(-c2ccnc(NC(=O)c3ccc(C)c(F)c3)c2)[nH]1 |
| 0.61 | 44 | CSc1nc(-c2ccc(F)cc2)c(-c2ccnc(NC(=O)c3ccc(F)cc3)c2)[nH]1 |
| 1.36 | 19 | CSc1nc(-c2ccc(F)cc2)c(-c2ccnc(NC(=O)c3ccccc3)c2)[nH]1 |
| 0.1 | 411 | CSc1nc(-c2ccc(F)cc2)c(-c2ccnc(NC(=O)c3ccc(C)c(F)c3)c2)n1C |
| 0.05 | 498 | CSc1nc(-c2ccc(F)cc2)c(-c2ccnc(NC(=O)Cc3ccccc3)c2)n1C |
| 1.44 | 36 | O=C(Nc1cc(-c2c(-c3ccc(F)cc3)nc3n2CCS3)ccn1)c1ccc(F)cc1 |
| 0.97 | 46 | O=C(Cc1ccccc1)Nc1cc(-c2c(-c3ccc(F)cc3)nc3n2CCS3)ccn1 |
| 0.77 | 115 | O=C(Nc1cc(-c2c(-c3ccc(F)cc3)nc3n2CCS3)ccn1)c1cc2ccccc2o1 |
| 0.96 | 29 | Cc1ccc(C(=O)Nc2cc(-c3c(-c4ccc(F)cc4)nc4n3CCS4)ccn2)cc1F |
